In publication PMC5308906 (Angewandte Chemie (International ed. in English), 2016):
No end group written: not given here.

How the values were obtained:
εPKC = molecular target: T1, εPKC (Homo sapiens, UniProt Q02156); test: In vitro binding assay of εPKC to the peptides; conditions: εPKC at ~75 μg/mL (~1 μM)
T1 sequence (Q02156 1-737): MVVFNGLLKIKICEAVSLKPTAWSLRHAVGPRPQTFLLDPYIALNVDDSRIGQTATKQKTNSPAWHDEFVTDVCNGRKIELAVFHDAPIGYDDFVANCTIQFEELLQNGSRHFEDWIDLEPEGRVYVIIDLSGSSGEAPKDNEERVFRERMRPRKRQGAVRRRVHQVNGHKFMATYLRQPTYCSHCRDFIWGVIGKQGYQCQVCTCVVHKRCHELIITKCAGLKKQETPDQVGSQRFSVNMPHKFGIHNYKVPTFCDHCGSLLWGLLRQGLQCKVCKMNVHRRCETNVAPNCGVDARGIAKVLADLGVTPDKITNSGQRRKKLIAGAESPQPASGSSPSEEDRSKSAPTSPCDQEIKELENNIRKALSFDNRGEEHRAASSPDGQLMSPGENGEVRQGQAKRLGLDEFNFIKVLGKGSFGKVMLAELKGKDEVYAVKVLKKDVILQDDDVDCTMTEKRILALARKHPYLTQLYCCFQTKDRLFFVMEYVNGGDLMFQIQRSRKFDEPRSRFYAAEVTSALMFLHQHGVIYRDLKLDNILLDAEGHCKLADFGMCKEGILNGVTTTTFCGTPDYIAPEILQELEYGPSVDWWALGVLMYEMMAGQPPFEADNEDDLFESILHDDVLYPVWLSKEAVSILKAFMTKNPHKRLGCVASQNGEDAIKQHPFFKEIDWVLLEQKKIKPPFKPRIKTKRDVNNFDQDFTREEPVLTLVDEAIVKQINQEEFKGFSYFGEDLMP

H9c2 cells [1] = test: Mitochondrial ROS production; conditions: H9c2, ischemia and reoxygenation; peptide 2 μM
[2] = tested on: Rat hearts subjected to I/R; test: Langendorff ex vivo model of myocardial infarction; conditions: ψDrp1 alanine substitution study, n=4
H9c2 cells [3] = assay type: cell-based; conditions: H9c2, ischemia and reoxygenation
phosphorylation of Drp1 = test: Drp1 phosphorylation after cardiac I/R, ψDrp1 derivatives; conditions: hearts subjected to I/R
δPKC = δPKC (Homo sapiens, UniProt Q05655); test: In vitro binding assay of δPKC to the peptides
δPKC, sequence (Q05655 whole entry): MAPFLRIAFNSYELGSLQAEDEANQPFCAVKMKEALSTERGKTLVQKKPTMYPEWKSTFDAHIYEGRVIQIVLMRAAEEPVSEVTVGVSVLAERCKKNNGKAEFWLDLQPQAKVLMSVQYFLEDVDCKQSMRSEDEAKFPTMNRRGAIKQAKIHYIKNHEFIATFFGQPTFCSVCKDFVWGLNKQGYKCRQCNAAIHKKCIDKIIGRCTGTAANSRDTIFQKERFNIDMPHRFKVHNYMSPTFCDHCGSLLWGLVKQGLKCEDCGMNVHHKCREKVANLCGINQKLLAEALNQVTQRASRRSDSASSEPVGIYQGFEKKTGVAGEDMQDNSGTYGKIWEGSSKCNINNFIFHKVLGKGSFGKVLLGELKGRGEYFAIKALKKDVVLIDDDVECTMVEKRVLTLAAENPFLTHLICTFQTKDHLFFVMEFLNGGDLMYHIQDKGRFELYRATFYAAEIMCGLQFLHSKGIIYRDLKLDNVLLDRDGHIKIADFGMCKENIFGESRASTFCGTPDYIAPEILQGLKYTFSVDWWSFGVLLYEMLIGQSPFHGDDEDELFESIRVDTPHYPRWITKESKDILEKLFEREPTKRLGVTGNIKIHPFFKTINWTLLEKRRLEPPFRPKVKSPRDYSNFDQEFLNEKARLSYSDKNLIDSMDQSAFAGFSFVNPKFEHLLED

RAAEEP-NH2 (C-terminus assumed) [ψMARCKS-Cargo]
Binding to εPKC (εPKC): not to the another PKC isozyme, εPKC

YGRKKRRQRRRGGYTDFDE-NH2 (C-terminus assumed) [ψDrp1]
Effect on excessive mitochondrial ROS production (H9c2 cells [1]): decreased excessive mitochondrial ROS production | Protection from cardiac damage [2]: 75% | Effect on mitochondrial function and cell viability (H9c2 cells [3]): rescued mitochondrial function and cell viability

YTAFDE-TAT [ψDrp1 Asp3 Ala]
Protection from cardiac damage [2]: 65% | Effect on Drp1 phosphorylation (phosphorylation of Drp1): inhibited Drp1 phosphorylation

YTDFDE [ψDrp1-Cargo]
Kd (δPKC): 1.4 ± 0.3 nM
